The text below walks through data of patent publication US20240190916A1, “NOVEL PEPTIDE” (HYSENSBIO, priority 2022, published 2024).

Holding throughout (assay type): cell-based
One assay deals with DSPP gene. Kind of assay: DSPP mRNA level by real-time PCR in human dental pulp cells. The settings on record: peptide 10 ug/ml, compared to untreated control. Here is the method: Human pulp tissue cells were isolated from wisdom teeth of 10 adults (18-22 years old) at Seoul National University Dental Hospital. Specifically, all experiments were performed with the patient's consent after approval from the hospital's Institutional Review Board, and wisdom teeth are cut according to a method of Jung H S et al (J Mol Histol. (2011)), exposing the pulp and isolating the pulp with forceps. The isolated pulp was minced on both sides, placed in a 60 mm dish, covered with a cover slip, and then cultured in Dulbecco's Modified Eagle medium. It is known that human dental pulp cells can differentiate into odontoblasts, osteoblasts, cementoblasts and periodontal ligament cells under various conditions (Tissue Eng Part A. 2014 April; 20(7-8): 1342-51).
(§1) Total RNA of human dental pulp cells and mesenchymal stem cells was isolated using a TRIzol reagent. cDNA was synthesized using 2 μg of total RNA, 1 μl of reverse transcriptase, and 0.5 μg of oligo (dT). The synthesized cDNA was used for real-time polymerase chain reaction. The real-time polymerase chain reaction was performed in ABI PRISM 7500 sequence detection system (Applied Biosystems) using SYBR GREEN PCR Master Mix (Takara, Japan). The real-time polymerase chain reaction was performed at 94° C., 1 min; 95° C., 15 sec-60° C., 34 sec was performed under the condition of repeating 40 cycles. An analysis of the results was evaluated using a comparative cycle threshold (CT) method, and primer base sequences are listed in Table 9.
The effect of each group of peptides on DSPP mRNA expression was confirmed by real-time PCR (Table 10).

The test system of another assay is BSP gene. Kind of assay: BSP mRNA level by real-time PCR in human-derived mesenchymal stem cells. The settings on record: compared to untreated control. As to the method:
(§2) It was cultured at 37° C. in humid air containing 5% CO2 and used for the experiment. Human mesenchymal stem cells (hBMSCs) were purchased from Lonza (LONZA, Switzerland) and used. hBMSCs were cultured in a-MEM (Invitrogen) medium supplemented with 10% heat-inactivated bovine serum.
as §1
(§3) BSP and DMP1 genes are used as markers for differentiation of osteoblasts and cementoblasts, and are known as important genes for calcification of a bone and cementum. The effects of each group of peptides on BSP and DMP1 mRNA expression were confirmed by a real-time PCR (Tables 11 and 12).

The next assay deals with DMP1 gene. Kind of assay: DMP1 mRNA level by real-time PCR in human-derived mesenchymal stem cells. The settings on record: compared to untreated control. As to the method: as §2, §1, §3

On to KYKAKKKSYK [SEQ ID NO: 9], for which, in the assay with DSPP gene, the “mRNA level of DSPP gene, Average” value amounted to 3.057 fold. In the assay with BSP gene, the “mRNA level of BSP gene, BSP gene expression, Average” value (shortened to “mRNA level of BSP gene”) worked out at 2.084 fold. For the same sequence, the “mRNA level of DMP1 gene, DMP1 gene expression, Average” value (shortened to “mRNA level of DMP1 gene”) in the assay on DMP1 gene stood at 9.869 fold.
The like results for KYKAKKRNYK [SEQ ID NO: 2] were, in that order, 7.361 fold, 2.713 fold and 10.361 fold.
For KYKAKKRSYK [SEQ ID NO: 10], the “mRNA level of DSPP gene, Average” value in the assay with DSPP gene came out at 3.811 fold. In the assay with BSP gene, the “mRNA level of BSP gene” value amounted to 1.998 fold. Besides, in the assay with DMP1 gene, the “mRNA level of DMP1 gene” value amounted to 9.998 fold.
In the case of KYKAKRKNYK [SEQ ID NO: 3], the “mRNA level of DSPP gene, Average” value in the assay with DSPP gene is listed as 8.572 fold. In addition, the “mRNA level of BSP gene” value in the assay with BSP gene turned out to be 2.715 fold. Further, the “mRNA level of DMP1 gene” value with DMP1 gene is given as 11.271 fold.
Regarding KYKAKRKSYK [SEQ ID NO: 11], in the assay on DSPP gene, the “mRNA level of DSPP gene, Average” value was 3.362 fold. In addition, the “mRNA level of BSP gene” value with BSP gene was 2.226 fold. For the same sequence, in the assay with DMP1 gene, the “mRNA level of DMP1 gene” value was found to be 8.795 fold.
For KYKAKRRNYK [SEQ ID NO: 5], in the assay on DSPP gene, the “mRNA level of DSPP gene, Average” value amounted to 6.67 fold. For the same sequence, the “mRNA level of BSP gene” value with BSP gene stood at 2.77 fold. For the same sequence, the “mRNA level of DMP1 gene” value in the assay with DMP1 gene is 11.001 fold.
In the case of KYKAKRRSYK [SEQ ID NO: 13], the “mRNA level of DSPP gene, Average” value with DSPP gene came out at 2.535 fold. Further, the “mRNA level of BSP gene” value with BSP gene turned out to be 2.637 fold. Moreover, the “mRNA level of DMP1 gene” value with DMP1 gene came to 9.237 fold.
For the sequence KYKARKKNYK [SEQ ID NO: 4], the “mRNA level of DSPP gene, Average” value in the assay on DSPP gene turned out to be 9.702 fold. For the same sequence, in the assay with BSP gene, the “mRNA level of BSP gene” value is 2.307 fold. For the same sequence, the “mRNA level of DMP1 gene” value in the assay with DMP1 gene came out at 9.720 fold.
Taken in the same sequence, the figures for KYKARKKSYK [SEQ ID NO: 12] were 2.911 fold, 1.918 fold and 7.997 fold.
The like results for KYKARKRNYK [SEQ ID NO: 8] were, in that order, 7.021 fold, 2.617 fold and 11.120 fold.
KYKARKRSYK [SEQ ID NO: 16]: in the assay with DSPP gene, the “mRNA level of DSPP gene, Average” value is listed as 2.906 fold. Also, the “mRNA level of BSP gene” value in the assay on BSP gene worked out at 2.307 fold. The “mRNA level of DMP1 gene” value with DMP1 gene was determined as 10.014 fold.
Take KYKARRKNYK [SEQ ID NO: 6]: in the assay with DSPP gene, the “mRNA level of DSPP gene, Average” value turned out to be 7.705 fold. Also, the “mRNA level of BSP gene” value with BSP gene amounted to 2.935 fold. Besides, the “mRNA level of DMP1 gene” value in the assay on DMP1 gene is on record as 9.897 fold.
With KYKARRKSYK [SEQ ID NO: 14], the “mRNA level of DSPP gene, Average” value in the assay on DSPP gene worked out at 2.136 fold. For the same sequence, in the assay on BSP gene, the “mRNA level of BSP gene” value came out at 1.729 fold. In addition, the “mRNA level of DMP1 gene” value in the assay with DMP1 gene was 9.407 fold.
The like results for KYKARRRNYK [SEQ ID NO: 7] were, in that order, 8.215 fold, 2.548 fold and 10.236 fold.
Taken in the same sequence, the figures for KYKARRRSYK [SEQ ID NO: 15] were 3.620 fold, 2.119 fold and 8.991 fold.
With KYRAKKKNYK [SEQ ID NO: 17], the “mRNA level of DSPP gene, Average” value in the assay on DSPP gene is given as 2.192 fold. Besides, in the assay on BSP gene, the “mRNA level of BSP gene” value came to 2.392 fold. Further, in the assay with DMP1 gene, the “mRNA level of DMP1 gene” value amounted to 9.400 fold.
As to KYRAKKKSYK [SEQ ID NO: 25], the “mRNA level of DSPP gene, Average” value in the assay with DSPP gene was determined as 1.919 fold. In the assay on BSP gene, the “mRNA level of BSP gene” value stood at 2.152 fold. In the assay on DMP1 gene, the “mRNA level of DMP1 gene” value was found to be 9.055 fold.
For KYRAKKRNYK [SEQ ID NO: 18], in the assay with DSPP gene, the “mRNA level of DSPP gene, Average” value is 2.061 fold. Besides, the “mRNA level of BSP gene” value in the assay on BSP gene amounted to 2.316 fold. For the same sequence, the “mRNA level of DMP1 gene” value with DMP1 gene came to 9.161 fold.
The like results for KYRAKKRSYK [SEQ ID NO: 26] were, in that order, 1.811 fold, 2.081 fold and 8.991 fold.
The like results for KYRAKRKNYK [SEQ ID NO: 19] were, in that order, 1.772 fold, 2.537 fold and 8.999 fold.
In the case of KYRAKRKSYK [SEQ ID NO: 27], the “mRNA level of DSPP gene, Average” value in the assay with DSPP gene was 1.620 fold. The “mRNA level of BSP gene” value with BSP gene is 2.195 fold. In addition, the “mRNA level of DMP1 gene” value with DMP1 gene is reported as 8.537 fold.
On to KYRAKRRNYK [SEQ ID NO: 21], for which, in the assay with DSPP gene, the “mRNA level of DSPP gene, Average” value turned out to be 2.167 fold. Moreover, the “mRNA level of BSP gene” value in the assay with BSP gene amounted to 1.995 fold. For the same sequence, in the assay with DMP1 gene, the “mRNA level of DMP1 gene” value turned out to be 9.100 fold.
Taken in the same sequence, the figures for KYRAKRRSYK [SEQ ID NO: 29] were 2.125 fold, 1.978 fold and 9.525 fold.
Consider KYRARKKNYK [SEQ ID NO: 20], for which the “mRNA level of DSPP gene, Average” value in the assay with DSPP gene is 1.702 fold. Further, the “mRNA level of BSP gene” value in the assay with BSP gene is reported as 2.91 fold. Also, the “mRNA level of DMP1 gene” value with DMP1 gene was determined as 8.537 fold.
As to KYRARKKSYK [SEQ ID NO: 28], the “mRNA level of DSPP gene, Average” value in the assay on DSPP gene was 2.311 fold. In addition, in the assay with BSP gene, the “mRNA level of BSP gene” value stood at 2.084 fold. Also, the “mRNA level of DMP1 gene” value with DMP1 gene is 9.198 fold.
Regarding KYRARKRNYK [SEQ ID NO: 24], the “mRNA level of DSPP gene, Average” value in the assay on DSPP gene came out at 2.021 fold. Also, in the assay with BSP gene, the “mRNA level of BSP gene” value was determined as 2.276 fold. Besides, the “mRNA level of DMP1 gene” value in the assay with DMP1 gene turned out to be 9.333 fold.
For KYRARKRSYK [SEQ ID NO: 32], the “mRNA level of DSPP gene, Average” value with DSPP gene is 1.861 fold. In addition, the “mRNA level of BSP gene” value in the assay on BSP gene is 1.893 fold. Further, in the assay on DMP1 gene, the “mRNA level of DMP1 gene” value is listed as 8.107 fold.
For KYRARRKNYK [SEQ ID NO: 22], in the assay with DSPP gene, the “mRNA level of DSPP gene, Average” value amounted to 2.005 fold. In the assay with BSP gene, the “mRNA level of BSP gene” value was found to be 1.893 fold. The “mRNA level of DMP1 gene” value in the assay on DMP1 gene is 7.997 fold.
For KYRARRKSYK [SEQ ID NO: 30], the “mRNA level of DSPP gene, Average” value in the assay on DSPP gene worked out at 1.836 fold. The “mRNA level of BSP gene” value in the assay on BSP gene is reported as 2.222 fold. The “mRNA level of DMP1 gene” value in the assay on DMP1 gene amounted to 8.683 fold.
The like results for KYRARRRNYK [SEQ ID NO: 23] were, in that order, 1.915 fold, 2.037 fold and 9.105 fold.
Regarding KYRARRRSYK [SEQ ID NO: 31], the “mRNA level of DSPP gene, Average” value in the assay on DSPP gene is on record as 1.620 fold. In the assay on BSP gene, the “mRNA level of BSP gene” value worked out at 1.798 fold. Moreover, in the assay with DMP1 gene, the “mRNA level of DMP1 gene” value was 9.100 fold.
